Data reported in patent US7605272B2, “IGF-1R inhibitor” (Kyowa Hakko Kirin Co., Ltd., priority 2005, dated 2009).

What was measured:
NCI-H929 = experiment: Cytostatic activity on human multiple myeloma cell line NCI-H929 (WST-1); assay type: cell-based; conditions: 10 μmol/L, 72 hours; for inhibition at 10 µM: Homo sapiens, NCI-H929, 72 h, read-out: cytostatic rate (%) H929 (10 μmol/L)
Procedure: (§1) The cytostatic rates of a test compound on human multiple myeloma cell lines NCI-H929 and KMS-11, were determined in the following manner.
(§2) For culturing NCI-H929, Roswell Park Memorial Institute's Medium (RPMI) 1640 (Gibco, Catalog No. 11875-093) containing 15% fetal bovine serum (Gibco, Catalog No. 10099-141), 1 mmol/L sodium pyruvate (Gibco, Catalog No. 11360-070), 10 mmol/L HEPES (Gibco, Catalog No. 15630-80), 4.5 g/L glucose (Sigma, Catalog No. G8769), 0.05 mmol/L 2-mercaptethanol (Nacalai Tesque, Catalog No. 21418-42) and penicillin/streptomycin (1:1) (Gibco, Catalog No. 15140-122) was used. For culturing KMS-11 cell, RPMI 1640 medium containing 10% fetal bovine serum and penicillin/streptomycin (1:1) was used. Each 80 μL of the NCI-H929 cell having a concentration of 1×10^5 cells/mL (or the KMS-11 cell having a concentration of 7.5×10^4 cells/mL) was inoculated to wells of a TC MICROWELL 96U plate (Nalge Nunc International, Catalog No. 163320) and was cultured in a 5% carbon dioxide gas incubator at 37° C. for 24 hours. Each 20 μL of a solution of the test compound in dimethyl sulfoxide (DMSO) which was prepared to make the final concentration to 1 μmol/L or 10 μmol/L, was added to each well. Each 20 μL of DMSO was added to the control well and the blank well to a final concentration of 0.1%. After adding the test compound, the cells were incubated in a 5% carbon dioxide gas incubator at 37° C. for 72 hours except for the blank well. After adding 20 μL of WST-1 reagent {4-[3-(4-iodophenyl)-2-(4-nitrophenyl)-2H-5-tetrazolio]-1,3-benzene disulfonate sodium salt} (Roche Diagnostics K.K., Catalog No. 1644807), which was diluted to 50% by RPMI medium to each well, the cells were further incubated at 37° C. for 2 hours. Then, the absorbances at 450 nm (reference wavelength: 690 nm) were measured with a microplate spectrophotometer SPECTRA max 340PC (Molecular Devices Corporation). The relative growth (%) of a well to which the test compound had been added and cultured for 72 hours was determined while setting the absorbance of a well to which not the test compound but DMSO alone had been added and cultured for 72 hours (control) as 100% and that of a well where the drugs are added (blank) as 0%. The cytostatic rate (%) of the test compound was determined by subtracting the calculated relative growth from 100.

IGF-1R = molecular target: T1, IGF-1R (Homo sapiens, UniProt P08069); experiment: IGF-1R inhibitory activity (kinase reaction, time-resolved fluoroimmunoassay); assay type: biochemical; conditions: IGF-1R active recombinant enzyme, test compound 10 μmol/L
T1 construct: purchased Upstate Co. 14-465
T1 sequence (P08069 959-1367 limits assumed): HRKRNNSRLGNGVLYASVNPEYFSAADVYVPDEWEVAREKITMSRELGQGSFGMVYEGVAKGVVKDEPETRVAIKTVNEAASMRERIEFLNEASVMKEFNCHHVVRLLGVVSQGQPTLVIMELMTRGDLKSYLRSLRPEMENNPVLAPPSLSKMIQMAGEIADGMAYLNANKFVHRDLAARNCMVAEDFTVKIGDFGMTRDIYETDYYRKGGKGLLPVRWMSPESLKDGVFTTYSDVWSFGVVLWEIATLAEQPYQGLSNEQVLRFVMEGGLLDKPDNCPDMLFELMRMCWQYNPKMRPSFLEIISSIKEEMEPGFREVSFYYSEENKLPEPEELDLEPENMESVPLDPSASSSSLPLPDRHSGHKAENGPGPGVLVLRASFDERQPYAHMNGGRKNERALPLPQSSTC
How it was run: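 Compounds were tested at a single 10 μmol/L concentration. Each was incubated with recombinant IGF-1R (200 μg/L), 10 mmol/L ATP, MgCl2/MnCl2 and Na3VO4 (pH 7.5) on immobilized poly(Glu-Tyr) peptide for 30 min at 24° C. Eu-anti-phosphotyrosine time-resolved fluorescence (340/615 nm) gave relative activity against no-compound and no-enzyme wells, reported as % inhibition.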

KMS-11 = experiment: Cytostatic activity on human multiple myeloma cell line KMS-11 (WST-1); assay type: cell-based; conditions: 10 μmol/L, 72 hours; for inhibition at 10 µM: Homo sapiens, KMS-11, 72 h, read-out: cytostatic rate (%) KMS-11 (10 μmol/L)
Procedure: as §1, §2

Structure (SMILES) | inhibition at 10 µM (IGF-1R) | inhibitory activity (%) at 10 μmol/L (IGF-1R) | inhibition at 10 µM (NCI-H929) | inhibition at 10 µM (KMS-11) | cytostatic rate (%) H929 (10 μmol/L) (NCI-H929) | cytostatic rate (%) KMS-11 (10 μmol/L) (KMS-11)
C(=C\c1n[nH]c2ccccc12)/c1ccccc1OCc1ccccc1 [Compound 13, (E)-3-[2-(2-benzyloxyphenyl)vinyl]-1H-indazole] | 96.9% |  | 116% | 105% |  | 
O=C(Cc1ccccc1)Nc1ccccc1/C=C/c1n[nH]c2ccccc12 [Compound 15, (E)-N-{2-[2-(1H-indazol-3-yl)vinyl]phenyl}-2-phenylacetamide] | 55.4% |  | 93.6% | 95.1% |  | 
O=S(=O)(Nc1ccccc1/C=C/c1n[nH]c2ccccc12)c1ccccc1 [Compound 16, (E)-N-{2-[2-(1H-indazol-3-yl)vinyl]phenyl}benzenesulfonamide] | 59.2% |  | 64.7% | 85.2% |  | 
CCNC(=O)Nc1ccccc1/C=C/c1n[nH]c2ccccc12 [Compound 21, (E)-1-ethyl-3-{2-[2-(1H-indazol-3-yl)vinyl]phenyl}urea] | 88.2% |  | 114% | 94% |  | 
O=C(Nc1ccccc1/C=C/c1n[nH]c2ccccc12)C1CCCCC1 [Compound 23, (E)-N-{2-[2-(1H-indazol-3-yl)vinyl]phenyl}cyclohexanecarboxamide] | 95.4% |  | 130% | 109% |  | 
O=C(Nc1ccccc1/C=C/c1n[nH]c2ccccc12)C1CCCC1 [Compound 24, (E)-N-{2-[2-(1H-indazol-3-yl)vinyl]phenyl}cyclopentanecarboxamide] | 97.4% |  | 116% | 110% |  | 
O=C(Cc1cccs1)Nc1ccccc1/C=C/c1n[nH]c2ccccc12 [Compound 25, (E)-N-{2-[2-(1H-indazol-3-yl)vinyl]phenyl}-2-(thiophen-2-yl)acetamide] | 86% |  | 116% | 106% |  | 
O=C(Nc1ccccc1/C=C/c1n[nH]c2ccccc12)C1CCCO1 (stereo not drawn) [Compound 32, (E)-N-{2-[2-(1H-indazol-3-yl)vinyl]phenyl}tetrahydrofuran-2-carboxamide] | 98.6% |  | 113% | 126% |  | 
O=C(Nc1ccccc1/C=C/c1n[nH]c2ccccc12)C1CC1 [Compound 33, (E)-N-{2-[2-(1H-indazol-3-yl)vinyl]phenyl}cyclopropanecarboxamide] | 92.4% |  | 108% | 115% |  | 
O=C(Nc1ccccc1/C=C/c1n[nH]c2ccccc12)N1CCOCC1 [Compound 35, (E)-N-{2-[2-(1H-indazol-3-yl)vinyl]phenyl}morpholine-4-carboxamide] | 98.4% |  | 110% | 125% |  | 
O=C(CCc1cccs1)Nc1ccccc1/C=C/c1n[nH]c2ccccc12 [Compound 39, (E)-N-{2-[2-(1H-indazol-3-yl)vinyl]phenyl}-3-(thiophen-2-yl)propionamide] | 59.1% |  | 68.8% | 91% |  | 
O=C(Nc1ccccc1/C=C/c1n[nH]c2ccccc12)C1CCC1 [Compound 44, (E)-N-{2-[2-(1H-indazol-3-yl)vinyl]phenyl}cyclobutanecarboxamide] | 98% |  | 115% | 113% |  | 

Continued, in another order:

inhibition at 10 µM (IGF-1R) | inhibitory activity (%) at 10 μmol/L (IGF-1R) | Structure (SMILES) | inhibition at 10 µM (NCI-H929) | inhibition at 10 µM (KMS-11) | cytostatic rate (%) H929 (10 μmol/L) (NCI-H929) | cytostatic rate (%) KMS-11 (10 μmol/L) (KMS-11)
96.1% |  | O=C(Nc1ccccc1/C=C/c1n[nH]c2ccccc12)c1ccccn1 [Compound 12, (E)-N-{2-[2-(1H-indazol-3-yl)vinyl]phenyl}pyridine-2-carboxamide] | 118% | 120% |  | 
96.5% |  | O=C(Nc1ccccc1/C=C/c1n[nH]c2ccccc12)c1cccs1 [Compound 14, (E)-N-{2-[2-(1H-indazol-3-yl)vinyl]phenyl}thiophene-2-carboxamide] | 114% | 110% |  | 
98.3% |  | CN(C)c1ccc(C(=O)Nc2ccccc2/C=C/c2n[nH]c3ccccc23)cc1 [Compound 17, (E)-4-dimethylamino-N-{2-[2-(1H-indazol-3-yl)vinyl]phenyl}benzamide] | 115% | 127% |  | 
 | 96.4% | CC(C)C(=O)Nc1ccccc1/C=C/c1n[nH]c2ccccc12 [Compound 18, (E)-N-{2-[2-(1H-indazol-3-yl)vinyl]phenyl}isobutylamide] |  |  | 112.7% | 124.1%
95.3% |  | COc1cccc(C(=O)Nc2ccccc2/C=C/c2n[nH]c3ccccc23)c1 [Compound 19, (E)-N-{2-[2-(1H-indazol-3-yl)vinyl]phenyl}-3-methoxybenzamide] | 132% | 110% |  | 
97.3% |  | COc1ccccc1C(=O)Nc1ccccc1/C=C/c1n[nH]c2ccccc12 [Compound 20, (E)-N-{2-[2-(1H-indazol-3-yl)vinyl]phenyl}-2-methoxybenzamide] | 130% | 107% |  | 
99.3% |  | CN(C)c1cccc(C(=O)Nc2ccccc2/C=C/c2n[nH]c3ccccc23)c1 [Compound 27, (E)-3-dimethylamino-N-{2-[2-(1H-indazol-3-yl)vinyl]phenyl}benzamide] | 119% | 114% |  | 
95.2% |  | O=C(Nc1ccccc1/C=C/c1n[nH]c2ccccc12)c1cnccn1 [Compound 28, (E)-N-{2-[2-(1H-indazol-3-yl)vinyl]phenyl}pyrazine-2-carboxamide] | 116% | 109% |  | 
97.6% |  | Cc1ccccc1C(=O)Nc1ccccc1/C=C/c1n[nH]c2ccccc12 [Compound 30, (E)-N-{2-[2-(1H-indazol-3-yl)vinyl]phenyl}-2-methylbenzamide] | 115% | 115% |  | 
99.7% |  | O=C(Nc1ccccc1/C=C/c1n[nH]c2ccccc12)c1ccsc1 [Compound 31, (E)-N-{2-[2-(1H-indazol-3-yl)vinyl]phenyl}thiophene-3-carboxamide] | 114% | 117% |  | 
99.2% |  | O=C(Nc1ccccc1/C=C/c1n[nH]c2ccccc12)c1ccc(Br)s1 [Compound 34, (E)-5-bromo-N-{2-[2-(1H-indazol-3-yl)vinyl]phenyl}thiophene-2-carboxamide] | 113% | 116% |  | 
98.6% |  | O=C(Nc1ccccc1/C=C/c1n[nH]c2ccccc12)c1cscn1 [Compound 36, (E)-N-{2-[2-(1H-indazol-3-yl)vinyl]phenyl}thiazole-4-carboxamide] | 112% | 116% |  | 
99.1% |  | O=C(Nc1ccccc1/C=C/c1n[nH]c2ccccc12)c1ccno1 [Compound 37, (E)-N-{2-[2-(1H-indazol-3-yl)vinyl]phenyl}isoxazole-5-carboxamide] | 112% | 112% |  | 
98.8% |  | Cc1ccc(C(=O)Nc2ccccc2/C=C/c2n[nH]c3ccccc23)s1 [Compound 40, (E)-N-{2-[2-(1H-indazol-3-yl)vinyl]phenyl}-5-methylthiophene-2-carboxamide] | 125% | 108% |  | 
98.9% |  | O=C(Nc1ccccc1/C=C/c1n[nH]c2ccccc12)c1ccc[nH]1 [Compound 42, (E)-N-{2-[2-(1H-indazol-3-yl)vinyl]phenyl}-1H-pyrrole-2-carboxamide] | 126% | 109% |  | 
96.3% |  | CC(=O)c1ccc(C(=O)Nc2ccccc2/C=C/c2n[nH]c3ccccc23)s1 [Compound 43, (E)-5-acetyl-N-{2-[2-(1H-indazol-3-yl)vinyl]phenyl}thiophene-2-carboxamide] | 113% | 112% |  | 
